Reference: paper PMC9995496, “A screen for MeCP2-TBL1 interaction inhibitors using a luminescence-based assay” (Scientific Reports, 2023)

What follows are molecules tested against T1, MeCP2-TBL1 interaction (MeCP2-SmBiT / TBL1-LgBiT) (Mus musculus, UniProt Q9QXE7) (assay: MeCP2-TBL1 NanoLuc luciferase complementation assay (cell-free, extracts of transfected HEK293 cells)). Settings: primary screen of Asinex library, single well per compound.
T1 construct: expressed in transfected cells; crude lysate used as a cell-free assay
T1 sequence (Q9QXE7 166-527): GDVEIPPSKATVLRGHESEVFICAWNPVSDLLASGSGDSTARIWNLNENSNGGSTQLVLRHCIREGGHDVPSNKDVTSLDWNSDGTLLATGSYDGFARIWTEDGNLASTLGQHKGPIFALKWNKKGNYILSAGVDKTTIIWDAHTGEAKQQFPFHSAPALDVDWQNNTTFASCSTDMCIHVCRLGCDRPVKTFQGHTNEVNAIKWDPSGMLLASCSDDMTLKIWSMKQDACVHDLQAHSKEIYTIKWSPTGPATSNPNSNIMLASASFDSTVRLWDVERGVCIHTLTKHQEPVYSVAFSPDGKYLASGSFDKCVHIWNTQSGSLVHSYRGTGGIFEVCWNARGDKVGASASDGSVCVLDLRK
Assay type: binding, human
Summary of the method: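 Cell-free split NanoLuc: lysate of HEK293 cells co-expressing the MeCP2 C-terminal half-SmBiT and TBL1 WD domain-LgBiT, mixed 1:1 with furimazine. After 30 min at room temperature, luminescence was plate-median normalized.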
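Also: each compound tested at 20 µM final concentration.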

SMILES | Inhibition percent
C[C@]12C[C@@H](Cc3ccccc3)N(C(=O)CCNC(=O)c3cccnc3)[C@H]1CCCC(=O)N2 [BDG_33627395] | 0.80
CC1(C)Oc2ccc(Cl)cc2[C@H]2OCC3(CCN(C(=O)CNC(=O)c4ccccc4)CC3)C[C@@H]21 [BDG_33694526] | -2.33
COc1cccc2c1OC(C)(C)[C@H]1CC3(CCN(C(=O)CCCN4C(=O)CNC4=O)CC3)CO[C@H]21 [BDG_33695254] | -4.47
CC1(C)Oc2ccccc2[C@H]2OCC3(CCN(C(=O)c4ccnc(N5CCCC5)c4)CC3)C[C@@H]21 [BDG_33695760] | 0.33
CCN(CC)S(=O)(=O)N1CCC2(C/C=C/Cc3ccccc3OCC(=O)NC2)CC1 [BDG_33697034] | 1.72

Next, values leading:

Inhibition percent | SMILES
-1.41 | Cc1cc(C)nc(NCCCC(=O)N2[C@H](Cc3ccccc3)C[C@]3(C)NC(=O)CCC[C@H]23)n1 [BDG_24639132]
-2.99 | C[C@@]12C[C@H]3[C@@H](Cc4ccccc4)N[C@@H]1CCC[C@@H]2N3C(=O)c1cccc(Cc2ccccc2F)n1 [BDG_33393042]
1.00 | C[C@]12C[C@@H]3N[C@H]1CCCC[C@H]2N(C(=O)COc1ccc(F)cc1F)[C@H]3Cc1ccccc1 [BDG_33505865]
-0.15 | CC(=O)N[C@H]1C[C@@H](C(=O)N(C)C)N(C(=O)CCCn2c(C)nc3ccccc32)[C@H]1c1ccccc1 [BDG_33630230]
5.65 | CC(=O)N[C@H]1C[C@@H](C(=O)N(C)C)N(C(=O)CCn2cnc3ccccc32)[C@H]1c1ccccc1 [BDG_33631962]
-4.17 | CCOc1cccc2c1OC(C)(C)[C@H]1CC3(CCN(Cc4cnc(NC)nc4)CC3)CO[C@H]21 [BDG_33691710]
-0.71 | COc1ccc2c(c1)OC(C)(C)[C@H]1CC3(CCN(C(=O)CCn4ccnc4)CC3)CO[C@H]21 [BDG_33691777]
0.88 | Cc1cc(C)n(CCCC(=O)N2CCCC[C@]3(C)NC(=O)CC[C@H]23)n1 [BDG_33850399]

Same assay, conditions: primary screen of the Asinex library, sheet "Sargen output Asinex library", one well per compound

SMILES | Inhibition percent [%]
COc1cccc(-c2cc(C(=O)N3[C@H]4CCC[C@H]5N(C)[C@H](Cc6ccccc6)[C@@H]3C[C@@]45C)on2)c1 [BDG_33506470] | 3.67
CCc1nccn1-c1ccc(C(=O)N2[C@H]3CCC[C@H]4N[C@@H](Cc5ccccc5)[C@@H]2C[C@@]34C)cn1 [BDG_33507727] | -2.00
COc1ccc2c(c1)[C@H]1OCC3(CCN(Cc4cnccn4)CC3)C[C@@H]1C(C)(C)O2 [BDG_33690689] | -2.69
Cc1cnc(C(=O)N2CCC3(CC2)CO[C@@H]2c4ccc(O)cc4OC(C)(C)[C@H]2C3)cn1 [BDG_33691581] | 1.04
CC(C)(C)OC(=O)N1CC[C@H]2O[C@H]3c4ccccc4OC(C)(C)[C@@H]3C[C@@]2(CO)C1 [BDG_33896521] | 3.83
COc1cccc2c1OC1(CCN(C)CC1)[C@H]1CCCO[C@H]21 [BDG_33900051] | -1.32
Oc1cccc2c1OC1(CCN(Cc3ccncc3)CC1)[C@H]1CCCO[C@H]21 [BDG_33900152] | -3.60

Second part, the molecule after the results:

Inhibition percent [%] | SMILES
-2.30 | CN(CCC(=O)N1[C@H](Cc2ccccc2)C[C@]2(C)NC(=O)CCC[C@H]12)Cc1ccccn1 [BDG_24639113]
-0.86 | CC(=O)N[C@@]12CCN(CCOc3ccc(F)cc3)C[C@@H]1[C@@H](c1ccccc1)N(C(C)=O)C2 [BDG_30283198]
5.29 | C[C@]12C[C@@H]3N[C@H]1CCC[C@H]2N(C(=O)c1cccc(Cc2ccccc2F)n1)[C@H]3Cc1ccccc1 [BDG_33393043]
-1.21 | Cc1nc(-c2cccnc2)sc1C(=O)N1[C@H]2CCC[C@H]3N[C@H](Cc4ccccc4)[C@@H]1C[C@@]23C [BDG_33506581]
3.50 | CC(=O)N1[C@@H](Cc2ccccc2)[C@@H]2C[C@@]3(C)[C@H](CCCC[C@@H]13)N2Cc1ccc(OCC(=O)O)cc1 [BDG_33507682]
-2.32 | CN(CCC(=O)N1[C@H](Cc2ccccc2)C[C@]2(C)NC(=O)CCC[C@H]12)Cc1cccnc1 [BDG_33630477]
-2.47 | COc1cccc2c1OC(C)(C)[C@H]1CC3(CCN(C(=O)CCCc4ccncc4)CC3)CO[C@H]21 [BDG_33693373]
2.05 | Cc1n[nH]c(C)c1S(=O)(=O)N1CCC2(CC1)CO[C@@H]1c3ccccc3OC(C)(C)[C@H]1C2 [BDG_33694386]
-0.50 | COc1cccc2c1OC(C)(C)[C@H]1CC3(CO[C@H]21)CN(Cc1cn(C)cn1)C3 [BDG_33739186]
-2.79 | COC(C)(C)C(=O)N1CCC2(CC1)Oc1c(O)cccc1[C@H]1OCCC[C@@H]12 [BDG_33900229]

Same assay, conditions: primary screen of the Asinex library, sheet "Sargen output Asinex library", one well per compound, Batch Ref. 1

SMILES | Inhibition percent [%]
Cn1c(CCC(=O)N2CC[C@@H]3[C@H]2CCCC(=O)N3Cc2ccc(F)cc2)nc2ccccc21 [BDG_23960040] | 1.86
O=C1CCC[C@H]2[C@@H](C[C@@H](c3cccc(C(F)(F)F)c3)N2C(=O)CCc2ccccc2)N1 [BDG_27570843] | 0.77
C[C@@]12C[C@H]3[C@H](Cc4ccccc4)N[C@@H]1CCCC[C@@H]2N3C(=O)CNC(=O)c1ccccc1 [BDG_33503003] | 1.11
CC(=O)N1[C@H](Cc2ccccc2)[C@@H]2C[C@@]3(C)[C@H](CCC[C@@H]13)N2C(=O)CNC(=O)c1ccccc1 [BDG_33503016] | 3.61
O=C(COc1ncnc2ccccc12)N1C[C@@H]2CC[C@H](Oc3ccc(Cl)cc3)[C@@H]2C1 [BDG_33516371] | 0.45
CN(C)[C@@H]1C[C@@H](C(N)=O)N(CC(=O)Nc2ccc(Oc3ccccc3)cc2)[C@H]1c1ccccc1 [BDG_33626169] | 3.84
C[C@]12C[C@@H](Cc3ccccc3)N(C(=O)CCCNc3ncnc4ccccc34)[C@H]1CCCC(=O)N2 [BDG_33628681] | -1.67
CC1(C)Oc2cc(O)ccc2[C@H]2OCC3(CCN(C(=O)c4ncccc4O)CC3)C[C@@H]21 [BDG_33691662] | -1.26
CCc1cc(C(=O)N2CCC3(CC2)CO[C@@H]2c4cc(OC)ccc4OC(C)(C)[C@H]2C3)no1 [BDG_33691868] | 2.32
CC1(C)Oc2ccccc2[C@H]2OCC3(CCN(C(=O)CCc4cccnc4)CC3)C[C@@H]21 [BDG_33692190] | -1.50
CC1(C)Oc2ccccc2[C@H]2OCC3(CCN(C(=O)c4[nH]nc5c4CCCCC5)CC3)C[C@@H]21 [BDG_33694755] | 2.01
CC1(C)Oc2ccccc2[C@H]2OCC3(CCN(C(=O)c4cccc(-n5cnnc5)c4)CC3)C[C@@H]21 [BDG_33695504] | 0.97
Cc1cccnc1C(=O)N1CC2(CO[C@@H]3c4ccccc4OC(C)(C)[C@H]3C2)C1 [BDG_33739514] | 0.31
Cc1ccc2c(c1)OC(C)(C)[C@H]1CC3(CO[C@H]21)CN(C(=O)CCn1nc(O)ccc1=O)C3 [BDG_33741109] | -2.39
CN(CCOc1ccccc1)C(=O)c1c(O)ccc2c1O[C@@H]1C[C@H]3C[C@H](C3(C)C)[C@]1(O)[C@H]2O [BDG_33899827] | 2.70
Oc1cccc2c1OC1(CCN(Cc3ccccc3)CC1)[C@H]1CCCO[C@H]21 [BDG_33900148] | 0.73
Cc1ccc2c(c1)OC1(CCN(Cc3cscn3)CC1)[C@H]1CCCO[C@H]21 [BDG_33900204] | 4.69

The next lines start with the values.

Inhibition percent [%] | SMILES
-0.20 | C[C@]12C[C@@H]3N[C@H]1CCC[C@H]2N(Cc1ccccc1C(=O)O)[C@H]3Cc1ccccc1 [BDG_33391350]
4.10 | C[C@]12C[C@@H]3N[C@H]1CCC[C@H]2N(C(=O)COc1ccccc1F)[C@H]3Cc1ccccc1 [BDG_33391690]
2.88 | COc1ccccc1OCC(=O)N1[C@@H](Cc2ccccc2)[C@@H]2C[C@@]3(C)[C@H](CCC[C@@H]13)N2 [BDG_33503207]
8.58 | COc1cccc(-c2cc(C(=O)N3[C@H]4CCC[C@H]5N(C)[C@@H](Cc6ccccc6)[C@@H]3C[C@@]45C)[nH]n2)c1 [BDG_33504530]
0.85 | C[C@@]12C[C@H]3[C@@H](Cc4ccccc4)N[C@@H]1CCCC[C@@H]2N3C(=O)CNC(=O)c1cncc(O)c1 [BDG_33504652]
12.86 | CCOc1ccc(-c2cc(C(=O)N3[C@@H](Cc4ccccc4)[C@@H]4C[C@@]5(C)[C@H](CCC[C@@H]35)N4)[nH]n2)cc1 [BDG_33504765]
-0.84 | C[C@@]12C[C@H]3[C@H](Cc4ccccc4)N[C@@H]1CCCC[C@@H]2N3C(=O)COc1ccccc1 [BDG_33505297]
-1.87 | C[C@@]12C[C@H]3[C@H](Cc4ccccc4)N[C@@H]1CCC[C@@H]2N3C(=O)c1ccnc(Cc2ccccc2F)c1 [BDG_33507770]
-0.52 | Cn1c(COCC(=O)N2[C@H](Cc3ccccc3)C[C@]3(C)NC(=O)CCC[C@H]23)nc2ccccc21 [BDG_33628430]
-3.82 | Cc1cccc(NC(=O)CCCC(=O)N2[C@H](Cc3ccccc3)C[C@]3(C)NC(=O)CCC[C@H]23)n1 [BDG_33629701]
-0.51 | COc1ccc2c(c1)[C@H]1OCC3(CCN(S(C)(=O)=O)CC3)C[C@@H]1C(C)(C)O2 [BDG_33690555]
-1.45 | Cc1ccc2c(c1)OC(C)(C)[C@H]1CC3(CCN(C(=O)CN4CCOCC4)CC3)CO[C@H]21 [BDG_33692107]
-2.32 | COCC(=O)N1CC2(CO[C@@H]3c4cccc(OC)c4OC(C)(C)[C@H]3C2)C1 [BDG_33739062]
